Experimental data reported in patent US20220323379A1, “P62 LIGAND COMPOUND AND ER-PHAGY-PROMOTING USE THEREOF” (PROTECH, INC., priority 2019, published 2022).

Target: T1, p62 (Homo sapiens, UniProt Q13501)
T1 construct: PCR amplification of a full-length human p62 cDNA fragment; expressed in transfected cells; unpurified lysate supernatant
Assay: In vitro p62 oligomerization assay
Assay type: biochemical
Settings: 2 h; for oligomerization and aggregation of p62: p62-ZZ ligands 1 mM, p62-myc/his cell lysate, FIG. 5B; for p62 oligomerization: dipeptide 50 mM, FIG. 2B
Experimental: FIG. 2B illustrates the in vitro p62 oligomerization assay results in HEK293T cells cultured with Arg-Ala or Ala-Arg dipeptide (50 mM, 2 hours),
FIG. 5B illustrates the in vitro p62 oligomerization assay results in HEK293T cells incubated with the p62-ZZ ligands (1 mM, 2 h) illustrated in FIG. 5A,
HEK293 cells were transiently transfected with a plasmid encoding p62-myc/his fusion proteins (Reference Example 2), resuspended in a lysis buffer [50 mM Hepes (pH 7.4), 0.15 M KCl, 0.1% Nonidet P-40), 10% glycerol, and a mixture of protease inhibitors and phosphatase inhibitor (Abcam)] and lysed by 10 cycles of freezing and thawing, followed by centrifugation at 13,000×g for 20 min at 4° C. The protein concentration in the supernatant was determined using a BCA assay (Thermo Fisher Scientific). A total of 1 μg of protein was mixed with 50 mM of the Arg-Ala or Ala-Arg dipeptide (Anygen) or 1000 μM of p62-ZZ ligands in the presence of 100 μM bestatin (Enzo) at room temperature for 2 h. Next, a non-reducing 4×LDS sample buffer was added to each sample, heated at 95° C. for 10 min, and resolved using 4-20% gradient SDS-PAGE (Bio-Rad). Immunoblotting analysis was carried out to monitor the conversion of p62 monomers into oligomers or aggregates using an anti-myc antibody.

oligomerization and aggregation of p62	p62 oligomerization	Compound
negative controls	–	COC(=O)CNC[C@@H](O)COc1ccc(OCc2ccccc2)c(OCc2ccccc2)c1 [YOK-G-1104, methyl (R)-(3-(3,4-bis(benzyloxy)phenoxy)-2-hydroxypropyl)glycinate]
–	did not induce p62 oligomerization	Ala-Arg
negative controls	–	O=Cc1ccc(OCc2ccccc2)c(OCc2ccccc2)c1 [compound 1101, 3,4-bis(benzyloxy)benzaldehyde]
–	induced p62 oligomerization	Arg-Ala
